What was measured:
[1] = target: T1, recombinant guanylate cyclase reporter cell line (Rattus norvegicus, UniProt P19686+P20595); experiment: Action on recombinant guanylate cyclase reporter cell line; assay type: cell-based
T1 construct: expressed in transfected cells
T1 sequence (P20595 1-619): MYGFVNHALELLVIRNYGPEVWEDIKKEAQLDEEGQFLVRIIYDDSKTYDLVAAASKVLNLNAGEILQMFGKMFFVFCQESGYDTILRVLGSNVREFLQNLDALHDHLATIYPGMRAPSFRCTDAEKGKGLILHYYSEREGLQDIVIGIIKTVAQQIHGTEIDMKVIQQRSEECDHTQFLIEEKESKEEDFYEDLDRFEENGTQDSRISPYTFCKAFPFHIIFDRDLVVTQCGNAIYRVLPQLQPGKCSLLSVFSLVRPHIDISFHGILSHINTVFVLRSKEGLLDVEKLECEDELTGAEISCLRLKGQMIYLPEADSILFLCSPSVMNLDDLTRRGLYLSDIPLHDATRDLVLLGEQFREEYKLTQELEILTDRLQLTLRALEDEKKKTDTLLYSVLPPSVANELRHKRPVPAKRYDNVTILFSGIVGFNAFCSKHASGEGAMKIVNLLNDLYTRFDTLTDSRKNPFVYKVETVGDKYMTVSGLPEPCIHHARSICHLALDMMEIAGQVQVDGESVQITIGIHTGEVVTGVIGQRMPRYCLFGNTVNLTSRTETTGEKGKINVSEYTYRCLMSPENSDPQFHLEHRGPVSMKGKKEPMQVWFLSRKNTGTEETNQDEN
T1 sequence (P19686 1-690): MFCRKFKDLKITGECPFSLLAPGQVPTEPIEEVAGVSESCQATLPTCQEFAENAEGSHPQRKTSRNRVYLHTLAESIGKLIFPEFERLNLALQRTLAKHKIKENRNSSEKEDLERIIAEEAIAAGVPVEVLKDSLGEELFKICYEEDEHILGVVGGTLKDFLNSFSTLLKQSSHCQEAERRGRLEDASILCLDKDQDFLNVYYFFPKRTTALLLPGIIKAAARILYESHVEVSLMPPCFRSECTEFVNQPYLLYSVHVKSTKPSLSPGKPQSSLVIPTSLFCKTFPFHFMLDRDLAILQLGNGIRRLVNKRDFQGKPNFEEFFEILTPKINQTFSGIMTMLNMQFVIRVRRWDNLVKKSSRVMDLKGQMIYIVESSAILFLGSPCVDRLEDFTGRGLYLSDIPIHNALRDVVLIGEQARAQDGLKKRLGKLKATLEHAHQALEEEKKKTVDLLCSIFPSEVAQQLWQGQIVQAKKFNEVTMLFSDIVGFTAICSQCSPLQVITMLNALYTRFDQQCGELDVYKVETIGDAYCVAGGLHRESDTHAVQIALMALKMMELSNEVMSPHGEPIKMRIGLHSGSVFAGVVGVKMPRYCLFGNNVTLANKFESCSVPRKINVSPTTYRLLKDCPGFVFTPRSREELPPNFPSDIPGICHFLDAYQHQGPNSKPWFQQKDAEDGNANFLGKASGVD
Method: B-2. Action on Recombinant Guanylate Cyclase Reporter Cell Line
The cellular action of the compounds according to the invention is determined on a recombinant guanylate cyclase reporter cell line, as described in F. Wunder et al., Anal. Biochem. 339, 104-112 (2005).

aorta = experiment: Vessel-relaxing action in vitro (phenylephrine-contracted aorta rings); conditions: Oryctolagus cuniculus; rabbit aorta rings, phenylephrine contraction; concentration reducing control contraction by 50%
Method: B-1. Vessel-Relaxing Action In Vitro
Rabbits are stunned with a blow on the back of the neck and exsanguinated. The aorta is removed, freed from adhering tissue, separated into rings with a width of 1.5 mm, and placed individually, with preloading, in 5-ml organ baths with carbogen-gassed Krebs-Henseleit solution at 37° C. with the following composition (mM in each case): sodium chloride: 119; potassium chloride: 4.8; calcium chloride dihydrate: 1; magnesium sulphate heptahydrate: 1.4; potassium dihydrogen phosphate: 1.2; sodium hydrogen carbonate: 25; glucose: 10. The contraction force is recorded with Statham UC2 cells, amplified and digitized via an A/D converter (DAS-1802 HC, Keithley Instruments Munich) and recorded in parallel on a continuous-line recorder. To produce contraction, phenylephrine is added to the bath cumulatively in increasing concentration. After several control cycles, the test substance is added in increasing dosage in each subsequent pass and the level of contraction is compared with the level of contraction reached in the immediately preceding pass. This is used for calculating the concentration that is required to reduce the level of the control value by 50% (IC50 value). The standard application volume is 5 μl, and the proportion of DMSO in the bath solution corresponds to 0.1%.

MEC (minimal effective concentration) [1] [µM] | IC50 (aorta) [nM] | Structure (SMILES)
0.01 | 12 | CC1(C)C(=O)Nc2nc(-c3nn(Cc4ccccc4F)c4ncc(F)cc34)ncc21 [Example 2, 2-[5-Fluoro-1-(2-fluorobenzyl)-1H-pyrazolo[3,4-b]pyridin-3-yl]-5,5-dimethyl-5,7-dihydro-6H-pyrrolo[2,3-d]pyrimidin-6-one]
0.03 | – | O=C1Nc2nc(-c3nn(Cc4ccccc4F)c4ncccc34)ncc2C12CCOC2 (stereo not shown) [Example 3, 2′-[1-(2-Fluorobenzyl)-1H-pyrazolo[3,4-b]pyridin-3-yl]-4,5-dihydrospiro[furan-3,5′-pyrrolo[2,3-d]pyrimidin]-6′(7′H)-one]
0.03 | – | O=C1Cc2cnc(-c3nn(Cc4ccccc4F)c4ncccc34)nc2N1 [Example 4, 2-[1-(2-Fluorobenzyl)-1H-pyrazolo[3,4-b]pyridin-3-yl]-5,7-dihydro-6H-pyrrolo[2,3-d]pyrimidin-6-one]
0.03 | – | O=C1Nc2nc(-c3nn(Cc4ccccc4F)c4ncccc34)ncc2C12CC2 [Example 5, 2′-[1-(2-Fluorobenzyl)-1H-pyrazolo[3,4-b]pyridin-3-yl]spiro[cyclopropane-1,5′-pyrrolo[2,3-d]pyrimidin]-6′(7′H)-one]
0.03 | – | O=C1Cc2nnc(-c3nn(Cc4ccccc4F)c4ncccc34)nc2N1 [Example 6, 3-[1-(2-Fluorobenzyl)-1H-pyrazolo[3,4-b]pyridin-3-yl]-5,7-dihydro-6H-pyrrolo[2,3-e][1,2,4]-triazin-6-one]
0.03 | 45 | CC1(C)C(=O)Nc2nc(-c3nn(Cc4ccccc4F)c4ncccc34)nc(C(F)F)c21 [Example 7, 4-(Difluoromethyl)-2-[1-(2-fluorobenzyl)-1H-pyrazolo[3,4-b]pyridin-3-yl]-5,5-dimethyl-5,7-dihydro-6H-pyrrolo[2,3-d]pyrimidin-6-one]
0.03 | 13 | O=C1Nc2nc(-c3nn(Cc4ccc(F)cc4F)c4ncccc34)ncc2C12CC2 [Example 8, 2′-[1-(2,4-Difluorobenzyl)-1H-pyrazolo[3,4-b]pyridin-3-yl]spiro[cyclopropane-1,5′-pyrrolo[2,3-d]pyrimidin]-6′(7′H)-one]
0.03 | 6 | O=C1Nc2nc(-c3nn(Cc4cccc(F)c4F)c4ncccc34)ncc2C12CC2 [Example 10, 2′-[1-(2,3-Difluorobenzyl)-1H-pyrazolo[3,4-b]pyridin-3-yl]spiro[cyclopropane-1,5′-pyrrolo[2,3-d]pyrimidin]-6′(7′H)-one]
0.03 | 4 | CC1(C)C(=O)Nc2nc(-c3nn(Cc4cccc(F)c4F)c4ncccc34)ncc21 [Example 11, 2-[1-(2,3-Difluorobenzyl)-1H-pyrazolo[3,4-b]pyridin-3-yl]-5,5-dimethyl-5,7-dihydro-6H-pyrrolo[2,3-d]pyrimidin-6-one]
0.1 | – | CC1(C)C(=O)Nc2nc(-c3nn(Cc4ccccc4F)c4ncccc34)nc(C3CC3)c21 [Example 12, 4-Cyclopropyl-2-[1-(2-fluorobenzyl)-1H-pyrazolo[3,4-b]pyridin-3-yl]-5,5-dimethyl-5,7-dihydro-6H-pyrrolo[2,3-d]pyrimidin-6-one]
0.1 | – | CC1(C)C(=O)Nc2nc(-c3nn(Cc4ccc(F)cc4F)c4ncccc34)ncc21 [Example 13, 2-[1-(2,4-Difluorobenzyl)-1H-pyrazolo[3,4-b]pyridin-3-yl]-5,5-dimethyl-5,7-dihydro-6H-pyrrolo[2,3-d]pyrimidin-6-one]
0.1 | 65 | CC1CC(=O)Nc2nc(-c3nn(Cc4ccccc4F)c4ncccc34)ncc21 (stereo not shown) [Example 14, 2-[1-(2-Fluorobenzyl)-1H-pyrazolo[3,4-b]pyridin-3-yl]-5-methyl-5,8-dihydropyrido[2,3-d]-pyrimidin-7(6H)-one]
0.3 | – | O=C1CC(C(F)(F)F)c2cnc(-c3nn(Cc4ccccc4F)c4ncccc34)nc2N1 (stereo not shown) [Example 15, 2-[1-(2-Fluorobenzyl)-1H-pyrazolo[3,4-b]pyridin-3-yl]-5-(trifluoromethyl)-5,8-dihydropyrido[2,3-d]pyrimidin-7(6H)-one]
1.0 | – | O=C1Nc2nc(-c3nn(Cc4ccccc4F)c4ncccc34)ncc2C1=O [Example 16, 2-[1-(2-Fluorobenzyl)-1H-pyrazolo[3,4-b]pyridin-3-yl]-5H-pyrrolo[2,3-d]pyrimidine-5,6(7H)-dione]
0.1 | 13 | CC1(O)C(=O)Nc2nc(-c3nn(Cc4ccccc4F)c4ncccc34)ncc21 (stereo not shown) [Example 17, 2-[1-(2-Fluorobenzyl)-1H-pyrazolo[3,4-b]pyridin-3-yl]-5-hydroxy-5-methyl-5,7-dihydro-6H-pyrrolo[2,3-d]pyrimidin-6-one]
0.1 | – | CC1(C)C(=O)Nc2nc(-c3nn(Cc4ccc(F)cc4F)c4ncc(F)cc34)nnc21 [Example 21, 3-[1-(2,4-Difluorobenzyl)-5-fluoro-1H-pyrazolo[3,4-b]pyridin-3-yl]-7,7-dimethyl-5,7-dihydro-6H-pyrrolo[2,3-e][1,2,4]triazin-6-one]
1.0 | – | O=C(O)CC1(O)C(=O)Nc2nc(-c3nn(Cc4ccccc4F)c4ncccc34)ncc21 (stereo not shown) [Example 25, {2-[1-(2-Fluorobenzyl)-1H-pyrazolo[3,4-b]pyridin-3-yl]-5-hydroxy-6-oxo-6,7-dihydro-5H-pyrrolo[2,3-d]pyrimidin-5-yl}acetic acid]
0.1 | – | CC1(C)C(=O)Nc2nc(-c3nn(Cc4c(F)ccc(F)c4F)c4ncc(F)cc34)nnc21 [Example 29, 3-[5-Fluoro-1-(2,3,6-trifluorobenzyl)-1H-pyrazolo[3,4-b]pyridin-3-yl]-7,7-dimethyl-5,7-dihydro-6H-pyrrolo[2,3-e][1,2,4]triazin-6-one]
1.0 | – | COC(=O)C(C)(C)c1nnc(-c2nn(Cc3ccc(F)cc3F)c3ncccc23)nc1O [Example 77A, Methyl 2-{3-[1-(2,4-difluorobenzyl)-1H-pyrazolo[3,4-b]pyridin-3-yl]-5-hydroxy-1,2,4-triazin-6-yl}-2-methylpropanoate]
0.3 | – | COC(=O)C(C)(C)c1nnc(-c2nn(Cc3c(F)ccc(F)c3F)c3ncc(F)cc23)nc1O [Example 82A, Methyl 2-{3-[5-fluoro-1-(2,3,6-trifluorobenzyl)-1H-pyrazolo[3,4-b]pyridin-3-yl]-5-hydroxy-1,2,4-triazin-6-yl}-2-methylpropanoate]

Structure (SMILES) | MEC (minimal effective concentration) [1] [µM] | IC50 (aorta) [nM]
O=C1Nc2nc(-c3nn(Cc4ccccc4F)c4ncccc34)ncc2C1(O)c1ccccc1 (stereo not shown) [Example 22, 2-[1-(2-Fluorobenzyl)-1H-pyrazolo[3,4-b]pyridin-3-yl]-5-hydroxy-5-phenyl-5,7-dihydro-6H-pyrrolo[2,3-d]pyrimidin-6-one] | 0.03 | –

Source: patent US9216978B2, “Ring-fused pyrimidines and triazines and use thereof for the treatment and/or prophylaxis of cardiovascular diseases” (BAYER INTELLECTUAL PROPERTY GMBH, priority 2010, dated 2015)
